According to the supplement of paper PMC8882468:

Assays:
Assay in all cases: CTG-3D luminescence at 96 h relative to day-0 seeding control (ratio to day 0); higher = more growth / less cytotoxicity; PDxO 3D drug screen, 96 h, CTG-3D normalised to day-0 seeding control.
HCI-008 = test system: HCI-008 (organoid from a HER2-enriched breast cancer xenograft)
HCI-003.E2 = test system: HCI-003.E2 (organoid from an ER-positive breast cancer xenograft)
HCI-027 = test system: HCI-027 (organoid from a triple-negative breast cancer xenograft)
HCI-012 = test system: HCI-012 (organoid from a breast cancer xenograft)
HCI-016 = test system: HCI-016 (organoid from a triple-negative breast cancer xenograft)
HCI-010 = test system: HCI-010 (organoid from a breast cancer xenograft)

CC[C@H](NC(=O)[C@H](C)NC)C(=O)N1C[C@@H](O)C[C@H]1Cc1c(-c2[nH]c3cc(F)ccc3c2C[C@@H]2C[C@H](O)CN2C(=O)[C@H](CC)NC(=O)[C@H](C)NC)[nH]c2cc(F)ccc12 [birinapant]
CTG-3D luminescence at 96 h
Conditions | 12.5 pM | 0.00025 µM | 0.005 µM | 0.1 µM | 1 µM | 10 µM | 100 µM | 625 fM
HCI-008, days in culture: 228 | 1.3 | 1.73 | 0.611 | 0.11 | 0.147 | 0.206 | 0.162 | 1.43
HCI-008, days in culture: 244 | 1.27 | 1.82 | 1.05 | 0.549 | 0.521 | 0.713 | 0.51 | 2.04
HCI-010, days in culture: 52 | 2.04 | 2.47 | 2.12 | 2.26 | 1.6 | 1.52 | 1.05 | 2.18
HCI-010, days in culture: 65 | 1.7 | 1.59 | 1.72 | 1.47 | 1.43 | 1.23 | 0.618 | 1.66
HCI-010, days in culture: 103 | 3.3 | 3.66 | 3.43 | 2.74 | 2.62 | 2.1 | 0.973 | 2.9
HCI-012, days in culture: 143 | 1.9 | 1.6 | 0.979 | 1.05 | 0.841 | 1.03 | 0.0063 | 1.91
HCI-012, days in culture: 162 | 2.25 | 2.01 | 0.325 | 0.156 | 0.152 | 0.249 | 0.00568 | 2.83
HCI-012, days in culture: 201 | 2.65 | 2.24 | 1.46 | 0.262 | 0.102 | 0.277 | 0.0538 | 1.77
HCI-016, days in culture: 153 | 2.99 | 2.23 | 2.64 | 2.39 | 2.94 | 2.86 | 0.41 | 2.37
HCI-016, days in culture: 172 | 2.25 | 1.67 | 1.82 | 1.23 | 1.56 | 1.24 | 0.122 | 1.58
HCI-016, days in culture: 190 | 1.66 | 1.27 | 1.52 | 1.09 | 1.38 | 1.36 | 0.309 | 0.99
HCI-016, days in culture: 199 | 1.54 | 1.36 | 1.44 | 1.52 | 1.54 | 1.23 | 0.204 | 1.7
HCI-027, days in culture: 176 | 1.24 | 1.19 | 1.69 | 1.22 | 1.62 | 1.08 | 0.00679 | 1.18
HCI-027, days in culture: 194 | 1.58 | 1.02 | 0.983 | 0.99 | 1.14 | 1.31 | 0.129 | 1.53
HCI-027, days in culture: 201 | 1.64 | 1.19 | 1.14 | 0.985 | 0.933 | 1.13 | 0.11 | 1.76

HCI-003.E2
Conditions | CTG-3D luminescence at 96 h
12.5 pM | 2.21
0.00025 µM | 2.35
0.005 µM | 2.12
0.1 µM | 2.07
1 µM | 1.98
10 µM | 2.07
100 µM | 1.08
625 fM | 2.08

COc1cccc2c1C(=O)c1c(O)c3c(c(O)c1C2=O)C[C@@](O)(C(=O)CO)C[C@@H]3O[C@H]1C[C@H](N)[C@H](O)[C@H](C)O1 [doxorubicin]
CTG-3D luminescence at 96 h
Conditions | 12.5 pM | 0.00025 µM | 0.005 µM | 0.1 µM | 1 µM | 10 µM | 100 µM | 625 fM
HCI-008, days in culture: 228 | 1.33 | 1.91 | 1.48 | 1.51 | 0.743 | 0.19 | 0.0571 | 1.87
HCI-008, days in culture: 244 | 1.19 | 1.9 | 1.52 | 2.09 | 0.849 | 0.198 | 0.0903 | 2.37
HCI-010, days in culture: 52 | 2.23 | 2.37 | 2.52 | 1.93 | 0.497 | 0.271 | 0.0478 | 2.26
HCI-010, days in culture: 65 | 1.7 | 1.65 | 1.8 | 1.3 | 0.324 | 0.288 | -0.000428 | 1.65
HCI-010, days in culture: 103 | 3.64 | 3.76 | 3.69 | 2.37 | 0.535 | 0.804 | 0.0524 | 3.28
HCI-012, days in culture: 143 | 1.78 | 1.93 | 1.8 | 0.35 | 0.0586 | -0.00257 | -0.0149 | 1.91
HCI-012, days in culture: 162 | 2.15 | 2.16 | 2.04 | 0.961 | 0.0655 | 0.00235 | -0.0139 | 3.15
HCI-012, days in culture: 201 | 2.84 | 1.58 | 1.7 | 0.408 | 0.0363 | 0.000335 | -0.0192 | 1.33
HCI-016, days in culture: 153 | 2.98 | 1.26 | 2.02 | 0.665 | 0.19 | 0.0767 | 0.0122 | 2.51
HCI-016, days in culture: 172 | 2.04 | 1.45 | 1.73 | 1.29 | 0.194 | 0.0836 | 0.0359 | 1.97
HCI-016, days in culture: 190 | 1.66 | 1.38 | 1.27 | 0.803 | 0.316 | 0.118 | 0.0242 | 1.26
HCI-016, days in culture: 199 | 1.35 | 1.52 | 1.53 | 1.33 | 0.159 | 0.232 | 0.0264 | 1.7
HCI-027, days in culture: 176 | 2.14 | 1.93 | 1.87 | 0.162 | 0.0301 | 0.0198 | 0.0148 | 1.53
HCI-027, days in culture: 194 | 1.83 | 1.43 | 1.48 | 0.308 | 0.0306 | 0.0259 | 0.0261 | 1.7
HCI-027, days in culture: 201 | 1.99 | 2.28 | 1.79 | 0.325 | 0.0185 | 0.0267 | 0.0218 | 2.05

HCI-003.E2
Conditions | CTG-3D luminescence at 96 h
12.5 pM | 2.13
0.00025 µM | 2.46
0.005 µM | 2.07
0.1 µM | 2.22
1 µM | 1.15
10 µM | 0.024
100 µM | -0.00504
625 fM | 2.13

O=C(O)C1(C(=O)O)CCC1.[NH2-].[NH2-].[Pt+2] [carboplatin]
CTG-3D luminescence at 96 h
Conditions | 12.5 pM | 0.00025 µM | 0.005 µM | 0.1 µM | 1 µM | 10 µM | 100 µM | 625 fM
HCI-008, days in culture: 228 | 1.58 | 2.29 | 1.79 | 2.05 | 1.57 | 1.31 | 0.0629 | 1.63
HCI-008, days in culture: 244 | 1.2 | 1.8 | 1.7 | 2.09 | 1.78 | 1.89 | 0.158 | 1.98
HCI-010, days in culture: 52 | 1.92 | 2.23 | 2.25 | 2.47 | 2.55 | 0.598 | 0.0393 | 1.82
HCI-010, days in culture: 65 | 1.63 | 1.56 | 1.74 | 1.77 | 1.63 | 0.511 | 0.0408 | 1.74
HCI-010, days in culture: 103 | 3.69 | 3.41 | 3.55 | 3.27 | 3.23 | 0.639 | 0.13 | 3.07
HCI-012, days in culture: 143 | 2.05 | 1.91 | 1.99 | 2.46 | 2.43 | 1.87 | 0.161 | 1.81
HCI-012, days in culture: 162 | 2.3 | 1.93 | 2.03 | 2.94 | 2.7 | 2.14 | 0.261 | 2.61
HCI-012, days in culture: 201 | 2.62 | 1.81 | 1.46 | 1.53 | 2.08 | 1.48 | 0.595 | 1.38
HCI-016, days in culture: 153 | 3.27 | 2.03 | 2.66 | 2.2 | 2.81 | 0.866 | 0.0935 | 2.64
HCI-016, days in culture: 172 | 2.27 | 2.25 | 1.89 | 1.3 | 1.71 | 0.761 | 0.139 | 1.78
HCI-016, days in culture: 190 | 1.49 | 1.29 | 1.53 | 1.17 | 1.46 | 0.642 | 0.12 | 1.18
HCI-016, days in culture: 199 | 1.55 | 1.29 | 1.34 | 1.29 | 1.64 | 0.782 | 0.081 | 1.86
HCI-027, days in culture: 176 | 1.57 | 1.38 | 2.11 | 1.68 | 2.42 | 1.35 | 0.0917 | 1.72
HCI-027, days in culture: 194 | 1.43 | 1.55 | 1.4 | 1.9 | 2.15 | 1.91 | 0.181 | 1.44
HCI-027, days in culture: 201 | 2.1 | 1.98 | 2.09 | 2.08 | 2.19 | 1.53 | 0.145 | 1.71

HCI-003.E2
Conditions | CTG-3D luminescence at 96 h
12.5 pM | 2.12
0.00025 µM | 2.49
0.005 µM | 2.22
0.1 µM | 2.23
1 µM | 2.32
10 µM | 2.35
100 µM | 1.65
625 fM | 2.11

NC(=O)Nc1cc(-c2cccc(F)c2)sc1C(=O)N[C@H]1CCCNC1 [AZD7762]
CTG-3D luminescence at 96 h
Conditions | 12.5 pM | 0.00025 µM | 0.005 µM | 0.1 µM | 1 µM | 10 µM | 100 µM | 625 fM
HCI-008, days in culture: 228 | 1.63 | 1.9 | 1.65 | 1.14 | 0.449 | 0.196 | -0.128 | 1.86
HCI-008, days in culture: 244 | 1.39 | 1.87 | 2.45 | 1.66 | 0.881 | 0.413 | 0.00425 | 2.38
HCI-010, days in culture: 52 | 2.15 | 2.42 | 2.03 | 0.844 | 0.355 | 0.327 | -0.0157 | 2.28
HCI-010, days in culture: 65 | 1.69 | 1.62 | 1.42 | 0.742 | 0.378 | 0.219 | 0.00203 | 1.65
HCI-010, days in culture: 103 | 3.16 | 3.35 | 3.16 | 1.23 | 0.651 | 0.537 | 0.0021 | 3.22
HCI-012, days in culture: 143 | 2.11 | 2.03 | 2.04 | 2.67 | 1.75 | 0.0896 | 0.000673 | 1.69
HCI-012, days in culture: 162 | 2.58 | 2.41 | 1.89 | 2.83 | 1.99 | 0.16 | -5.12e-05 | 3.15
HCI-012, days in culture: 201 | 2.51 | 2.18 | 1.69 | 1.39 | 2.14 | 0.141 | 0.00358 | 1.9
HCI-016, days in culture: 153 | 3.14 | 1.64 | 2.54 | 0.266 | 0.0727 | 0.081 | 0.000259 | 2.62
HCI-016, days in culture: 172 | 2.35 | 1.91 | 1.78 | 0.194 | 0.0623 | 0.0531 | -3.08e-05 | 1.66
HCI-016, days in culture: 190 | 1.53 | 1.19 | 1.71 | 0.131 | 0.0574 | 0.0481 | 0.00171 | 1.32
HCI-016, days in culture: 199 | 1.5 | 1.46 | 1.56 | 0.129 | 0.0407 | 0.0245 | -0.00099 | 1.57
HCI-027, days in culture: 176 | 1.95 | 1.34 | 2.55 | 0.208 | 0.0981 | 0.0356 | -0.00164 | 2.05
HCI-027, days in culture: 194 | 1.41 | 1.22 | 1.34 | 0.159 | 0.0911 | 0.0685 | -0.00154 | 1.61
HCI-027, days in culture: 201 | 1.43 | 2.16 | 2.35 | 0.166 | 0.0767 | 0.078 | -1.51e-05 | 1.6

HCI-003.E2
Conditions | CTG-3D luminescence at 96 h
12.5 pM | 2.21
0.00025 µM | 2.59
0.005 µM | 1.96
0.1 µM | 1.78
1 µM | 1.12
10 µM | 0.769
100 µM | 0.0016
625 fM | 2.21
